According to article PMC4754833, “Rilpivirine analogs potently inhibit drug-resistant HIV-1 mutants” (Retrovirology, 2016):
Where two headings read alike, the source gives them in different places.

Columns and labels:
[1] = test system: WT HIV-1; experiment: single round infection luciferase assay, WT HIV-1; type: cell-based; details: Human immunodeficiency virus 1
Description: (§1) The human osteosarcoma cell line, HOS, was obtained from Dr. Richard Schwartz (Michigan State University, East Lansing, MI) and grown in Dulbecco’s modified Eagle’s medium (Invitrogen, Carlsbad, CA) supplemented with 5 % (v/v) fetal bovine serum, 5 % newborn calf serum, and penicillin (50 units/ml) plus streptomycin (50 µg/ml; Quality Biological, Gaithersburg, MD). Virion production and single-round infectivity assays were used to determine antiviral activity (IC50 values) of the compounds as previously described.
(§2) pNLNgoMIVR-ΔEnv.LUC has been described previously. The RT open reading frame was removed from pNLNgoMIVR-ΔEnv.LUC (digestion with SpeI and SalI) and inserted between the SpeI and SalI sites of pBluescript II KS+. Using that construct as the wild-type template, we prepared the following HIV-1 RT mutants using the QuikChange II XL (Stratagene, La Jolla, CA) site-directed mutagenesis protocol kit: L100I, K103N, Y181C, Y188L, H221Y, K103N/Y181C, G190A, G190S, M230L, P236L, L100I/K103N, K103N/P225H, V106A/G190A/F227L, V106A, L234I, V106A/F227L, V106A/L234I, V106A/F227L/L234I, E40K, D67E, K101E, V111A, E138K, M184I, M184V, K101E/M184I, K101E/M184V, E138K/M184I, E138K/M184V, K101P, Y181I, and K101P/V179I. The following sense oligonucleotides were used with matching cognate antisense oligonucleotides (not shown) (Integrated DNA Technologies, Coralville, IA) in the mutagenesis: L100I, 5′-[…]-3′; L100I 2-103, 5′-[…]-3′; K103N, 5′-[…]-3′; Y181C, 5′-[…]-3′; Y188L, 5′-[…]-3′; H221Y, 5′-[…]-3′; G190A, 5′-[…]-3′; G190S, 5′-[…]-3′; P225H, 5′-[…]-3′; F227, 5′-[…]-3′; M230L, 5′-[…]-3′; P236L, 5′-[…]-3′; V106A, 5′-[…]-3′; L234I, 5′-[…]-3′; E40K, 5′-[…]-3′; D67E, 5′-[…]-3′; K101E, 5′-[…]-3′; V111A, 5′-[…]-3′; E138K, 5′-[…]-3′; M184I, 5′-[…]-3′; M184V, 5′-[…]-3′; K101P, 5′-[…]-3′; Y181I, 5′-[…]-3′; K101P/V179I, 5′-[…]-3′. The double mutants K103N/Y181C, K103N/P225H, and L100I/K103N were made using the previously generated K103N mutant and the appropriate oligonucleotides to add the second mutation, Y181C, P225, and L100I respectively. The double mutants V106A/F227L and V106A/L234I were prepared using the previously generated V106A mutant and the appropriate oligonucleotides to add the second mutation, F227L and L234I, respectively. The double mutants K101E/M184I and K101E/M184V were constructed using the previously generated K101E mutant and the appropriate oligonucleotides to add the second mutation, M184I and M184V, respectively. The double mutants E138K/M184I and E138K/M184V were constructed using the previously generated E138K mutant and the appropriate oligonucleotides for the second mutation, M184I and M184V, respectively. The triple mutant V106A/F227L/L234I was made using the previously generated V106A/F227L double mutant and the appropriate oligonucleotides for the third mutation, L234I. The triple mutant V106A/G190A/F227L was constructed in a series of steps using the previously generated V106A mutant and the appropriate oligonucleotides for the second mutation, G190A, to generate the double mutant V106A/G190A, and then the triple mutant was made using double mutant V106A/G190A and oligonucleotides for the third mutation, F227L. The DNA sequence of each construct was verified by DNA sequence determination. The sequences encoding the mutant RTs were then subcloned into pNLNgoMIVR-ΔEnv.LUC (between the KpnI and SalI sites) to produce the mutant HIV-1 constructs. These DNA sequences were also checked independently by DNA sequence determination.
(§3) 10.1186/s12977-016-0244-2 The IC50 values (nM) of RPV and the RPV analogs were determined against the NNRTI resistant mutants were measured by using a single round infection assay, n = 4. The concentrations (nM) are measured by reductions in luciferase reporter activity followed by the standard deviations. […]

[2] = test system: HIV-1 RT mutant G190S; experiment: single round infection assay, G190S; type: cell-based; details: Human immunodeficiency virus 1
Description: as §1, §2, §3

[3] = test system: HIV-1 RT mutant L100I/K103N; experiment: single round infection assay, L100I/K103N; type: cell-based; details: for fold-change of IC50 of the mutant relative to WT: L100I/K103N vs WT; for IC50: Human immunodeficiency virus 1, L100I/K103N, ± SD, n=4, limit of detection 100 nM
Description: as §1, §2, §3

[4] = test system: HIV-1 RT mutant V106A/F227L; experiment: single round infection assay, V106A/F227L; type: cell-based; details: V106A/F227L vs WT
Description: as §1, §2, §3

[5] = test system: HIV-1 RT mutant D67E; experiment: single round infection assay, D67E; type: cell-based; details: for fold-change of IC50 of the mutant relative to WT: D67E vs WT; for IC50: ± SD, n=4
Description: as §1, §2, §3

[6] = test system: HIV-1 RT mutant K101E/M184I; experiment: single round infection assay, K101E/M184I; type: cell-based; details: for IC50: ± SD, n=4; for fold-change of IC50 of the mutant relative to WT: K101E/M184I vs WT
Description: as §1, §2, §3

[7] = test system: HIV-1 RT mutant E138K/M184I; experiment: single round infection assay, E138K/M184I; type: cell-based; details: for fold-change of IC50 of the mutant relative to WT: E138K/M184I vs WT; for IC50: ± SD, n=4
Description: as §1, §2, §3

[8] = test system: HIV-1 RT mutant E138K/M184V; experiment: single round infection assay, E138K/M184V; type: cell-based; details: for fold-change of IC50 of the mutant relative to WT: E138K/M184V vs WT; for IC50: ± SD, n=4
Description: as §1, §2, §3

[9] = test system: HIV-1 RT mutant Y181I; experiment: single round infection assay, Y181I; type: cell-based; details: for IC50: Human immunodeficiency virus 1; for fold-change of IC50 of the mutant relative to WT: Y181I vs WT
Description: as §1, §2, §3

[10] = test system: WT HIV-1; details: previous study; cited from earlier work
[11] = test system: HIV-1 RT mutant L100I; set-up: method as in PMID 23217210; details: previous study; cited from earlier work
[12] = test system: HIV-1 RT mutant K103N; set-up: method as in PMID 23217210; details: previous study; cited from earlier work
[13] = test system: HIV-1 RT mutant Y181C; set-up: method as in PMID 23217210; details: previous study; cited from earlier work
[14] = test system: HIV-1 RT mutant H221Y; set-up: method as in PMID 23217210; details: previous study; cited from earlier work
[15] = Human immunodeficiency virus 1, D67E
[16] = Human immunodeficiency virus 1, K101E/M184I
[17] = Human immunodeficiency virus 1, E138K/M184I
[18] = Human immunodeficiency virus 1, E138K/M184V

Row | Structure (SMILES) | IC50 [1] [nM] | IC50 [2] [nM] | fold-change of IC50 of the mutant relative to WT [3] | fold-change of IC50 of the mutant relative to WT [4] | fold-change of IC50 of the mutant relative to WT [5] | IC50 [5, 15] [nM] | IC50 [6, 16] [nM] | fold-change of IC50 of the mutant relative to WT [6] | fold-change of IC50 of the mutant relative to WT [7] | IC50 [7, 17] [nM] | fold-change of IC50 of the mutant relative to WT [8] | IC50 ([8]; E138K/M184V) [nM] | IC50 [8, 18] [nM] | IC50 [9] [nM] | IC50 [10] [nM] | IC50 [11] [nM] | IC50 [12] [nM] | IC50 [13] [nM] | IC50 [14] [nM] | IC50 [3] [nM] | further results
1 | Cc1cc(/C=C/C#N)cc(C)c1Nc1nc(Nc2ccc(C#N)cc2)ncc1N [compound 7] | 0.78 ± 0.2 | 0.4 ± 0.07 | 2 | < 2 | 6 | 4.5 ± 1.1 | < 2.5 | < 2 | 4 | < 2.5 | 3 | 2.4 ± 0.2 | < 2.5 | 19 | < 7 | < 7 | < 7 | < 7 | < 7 | – | IC50 ([6]; K101E/M184I): 1.3 ± 0.6 nM; IC50 ([7]; E138K/M184I): 2.9 ± 0.6 nM; fold-change of IC50 of the mutant relative to WT [9]: 24
2 | Cc1cc(/C=C/C#N)cc(C)c1Nc1nc(Nc2ccc3scnc3c2)c2nc[nH]c2n1 [compound 21] | 0.41 ± 0.1 | 0.2 ± 0.04 | 92 | 27 | 9 | 3.6 ± 0.6 | – | 2 | 2 | – | 6 | 2.3 ± 0.7 | < 2.5 | > 100 | < 7 | < 7 | < 7 | < 7 | < 7 | 37.6 | –
3 | Cc1cc(/C=C/C#N)cc(C)c1Nc1nc(Nc2ccc(F)cc2)c2nc[nH]c2n1 [compound 17] | 2.2 ± 0.4 | 0.74 ± 0.11 | 29 | 19 | 12 | 26 | 15 | 7 | 2 | 5.2 ± 1.1 | < 2 | – | 2.3 ± 0.02 | 78.9 | < 7 | < 7 | < 7 | < 7 | < 7 | 63.4 | fold-change of IC50 of the mutant relative to WT [9]: 36
4 | Cc1cc(/C=C/C#N)cc(C)c1Nc1ncc(N)c(Nc2ccc(C#N)cc2)n1 [compound 9] | 1.3 ± 0.2 | 0.6 ± 0.07 | 34 | 17 | 3 | < 6 | < 6 | 3 | 2 | < 6 | 4 | 5.5 ± 1 | < 6 | > 100 | < 7 | < 7 | < 7 | < 7 | < 7 | 44.1 | IC50 ([5]; D67E): 4.2 ± 0.8 nM; IC50 ([6]; K101E/M184I): 3.3 ± 0.85 nM; IC50 ([7]; E138K/M184I): 3 ± 0.3 nM
